According to ChEMBL document CHEMBL3301464, “MMV Malaria Box anti-babesial screening”:

Tests used:
[1] = (§1) MMV: Anti-babesial activity assay. Parasite pRBCs at 1% parasitemia were cultivated in 100 ul with 96-well plates at 2.5% and 5% hematocrits. The parasites were cultivated in triplicate for 4 days without replacement of the medium for each concentration of the compound.; format: functional, Babesia equi
[2] = as §1; format: functional, Babesia bovis
[3] = as §1; format: functional, Babesia caballi
[4] = as §1; format: functional, Babesia bigemina

Compound | IC50 [1] [µM] | IC50 [2] [µM] | IC50 [3] [µM] | IC50 [4] [µM]
CCOc1ccc(/C=C/c2nc(=O)c3ccccc3o2)cc1 | 12.5 | 1 | 19.4 | 3.03
CCCCCCc1cc(O)c2c3c(c(=O)oc2c1)CCC(C)C3 (stereo not given) | 3.26 | 5.1 | 15.9 | 10
Brc1ccc(Nc2nc3ccccc3nc2Nc2ccc(Br)cc2)cc1 | 4.53 | 2.09 | 5.09 | 3.73
Cc1cccc(N2C(=O)C3C(C2=O)C2(c4ccccc4)C(=O)C3(c3ccccc3)C(c3ccc4c(c3)OCO4)=C2c2ccc3c(c2)OCO3)c1 (stereo not given) | 13.9 | 17 | 5.5 | 25
Cc1sc(NC(=O)c2ccccc2)c(C(c2cccs2)N2CCN(c3ccccc3)CC2)c1C (stereo not given) | 10.7 | 1.05 | 14.7 | 0.68
Cc1nc2ccccc2c(O)c1CC=C(Cl)Cl | 15.2 | 4.27 | 3.02 | 10.7
CC(C)=CCN1CCC(C(=O)Nc2ccc(-c3nc4ccccc4[nH]3)cc2)CC1 | 0.051 | 5.5 | 17 | 1.04
COc1cccc(-c2nn(C)c3sc(C(=O)NCCN4CCN(c5ccccc5F)CC4)cc23)c1 | 5.93 | 2.06 | 6.8 | 10
OC(CNC1CCCC1)Cn1c2ccccc2c2ccccc21 (stereo not given) | 3.9 | 1 | 3.53 | 17.3
CCN(CC)CCCNc1ccnc2cc3ccccc3cc12 | 15.9 | 2.7 | 25 | 1.3
CCCCCn1c(=N)n(CC(O)COc2cccc(C)c2)c2ccccc21 (stereo not given) | 4.52 | 0.08 | 5.9 | 0.1
CC(C)(C)c1ccc(C2CC3=Nc4ccccc4N(C(=O)c4ccccc4Cl)C(c4ccc(F)cc4)C3=C(O)C2)cc1 (stereo not given) | 15.2 | 21.4 | 3.73 | 12
COc1nc(Nc2ccc(C(C)C)cc2)nc(OC)n1 | 12.3 | 1.03 | 0.076 | 10.1
COc1ccc2nc(C)cc(Nc3cccc(O)c3)c2c1 | 4.19 | 13.4 | > 25 | 25
CC(C)(C)c1ccc2c(c1)CN(Cc1ccc(Cl)cc1)CO2 | 12.8 | 16.5 | 5.9 | > 25
COc1ccc2sc(N(Cc3cccnc3)C(=O)c3ccc(C#N)cc3)nc2c1 | 14.6 | 13.7 | 6.72 | 11.9
CC(=O)c1sc(NC(=O)Nc2ccc(C)cc2C)nc1C | 7.26 | 11.1 | 5.3 | 10
O=C(Nc1ccccc1O)c1ccc(-c2ccc(Cl)cc2Cl)o1 | 12.5 | 4.65 | 6.51 | 19
FC(F)(F)c1cccc(Nc2nc(-c3ccccc3)nc3ncccc23)c1 | 16 | 6.8 | 12 | 4.48
COc1ccc(OC)c(C2C3=C(CC(C)(C)CC3=O)N(c3ccc(Cl)c(Cl)c3)C3=C2C(=O)CC(C)(C)C3)c1 | 10.7 | 10 | 0.14 | 17.8
O=C(Nc1ccc(Br)cc1)Nc1cccc(Cl)c1 | 9.12 | 7.66 | > 25 | 12.8
Cc1ccc(C)c(Cn2c(N3CCC(C(=O)NCc4cccs4)CC3)nc3ccccc32)c1 | 10 | 0.13 | 16.5 | 0.1
Nc1nc(Nc2cccc(F)c2)nc2ccccc12 | 0.79 | 0.73 | 6.08 | 7.65
CCCCNc1nc(NC(C)(C)C)nc(NC(C)(C)C)n1 | 0.25 | 0.65 | 0.672 | 1
CCOc1ccc2nc(C)cc(Nc3ccc(N(C)C)cc3)c2c1 | 15.5 | 0.056 | 6.08 | 0.065
Oc1ccccc1CN1CCN(C(c2ccccc2)c2ccccc2)CC1 | 4.37 | 15.3 | 3.72 | 25
COc1ccccc1N1C(=N)SC(=Cc2ccc(OCc3ccccc3F)cc2)C1=O | 16.1 | 18.6 | 17.1 | 10
O=c1cc(NC2CCN(CCCc3ccccc3)CC2)c2cc(Cl)ccc2o1 | 8.77 | 18.2 | 16.5 | 10
Cn1c(=O)c2cc(C(=O)NCCCN3CCCCCC3)sc2c2ccccc21 | 5.35 | 10 | 13.9 | 8.03
O=C(c1ccccc1F)N(Cc1ccc(Cl)cc1)c1ccccn1 | 18.2 | 16.5 | 6.06 | 4.19
